For assay [1], the system named is P. falciparum NF54 gametocytes stage IV/V. Description: Gametocyte PrestoBlue resazurin assay Mancama. Format: cell-based. Conditions: reference control. In general terms: The colour change of resazurin is a common sign of viable cells or microbes.
Assay [2] relates to P. falciparum Dd2. The experiment in a line: Malaria Sybr Green I Fluorescence assay Dd2 Horrocks. The note with it: Plasmodium falciparum, DD2, 48 h; read-out: P. falciparum Dd2 asexual blood stage EC50 Horrocks. Format: cell-based. The protocol: Column S: Horrocks group (data presented first in this paper). Asexual Dd2 inhibition of growth (IC50s): IC50 for the Dd2 clone of Plasmodium falciparum were determined using the Malaria Sybr Green I Fluorescence assay. Drug assays were initiated using a 2% trophozoite stage parasitaemia and 2% hematocrit and fluorescence measured after 48 h as fully described in Hasenkamp et al.[53]. Log dose-response curves were plotted in GraphPad Prism (v5.0). The controls for Dd2 using our 48hr Sybr Green I assay were (rounded to nearest nM): Chloroquine 209nM, Mefloquine 11nM, Quinine 246nM, Dihydroartemisinin 4nM, Artemether 10nM, Atovaquone 3nM.

The subject of assay [3] is T. cruzi Tulahuen. The note with it: ref [84]; read-out: Trypanosoma cruzi Tulahuen intracellular amastigotes in MRC5 cell line EC50; cited from earlier work.
Assay [4] relates to Naegleria fowleri trophozoites. The experiment in a line: Naegleria fowleri CellTiter-Glo. In kind it is cell-based. The note with it: Naegleria fowleri. From the text: Columns CY-CZ: Kyle group (data presented first in this paper). Naegleria fowleri trophozoite growth inhibition. Methods: The CellTiter-Glo (CTG) 2.0 luminescent assay is a quantitative assay that assesses the presence of cellular ATP in lysed cells, displaying an output in Relative Light Units (RLU’s). This was previously standardised, for the growth and development of Naegleria fowleri trophozoites in-vitro to assess drug susceptibility on this parasite. […] These included two drug-like molecules MMV665807 (St. Jude’s Children’s Hospital) and MMV665979 (The Genomics Institute of the Novartis Research Foundation - GNF) and two Probe-like molecules, MMV006203 (GNF) & MMV006172 (GNF; GlaxoSmithKline - GSK). […] However, these Malaria Box compounds were all toxic to zebrafish and mammalian cells.
On the technique in general: In ATP-based viability assays light output follows the ATP content of the culture.

For assay [5], the system named is P. falciparum NF54 late-stage gametocytes. Conditions: ref [61]; cited from earlier work.
The subject of assay [6] is P. falciparum 3D7. Description: [3H]-hypoxanthine growth inhibition, modified HCO3- or O2. Format: cell-based. Conditions: for IC50: Plasmodium falciparum.
Assay [7] deals with PfPMT (Plasmodium falciparum, UniProt Q8IDQ9). The experiment in a line: PfPMT gene replacement yeast growth. The note with it: 100µM.
In assay [8] the test system is P. falciparum. The experiment in a line: EC50 listed in S2 Table Metabolomics (used to set the concentration tested). Format: cell-based. Conditions: Plasmodium falciparum; EC50 used for Factor_XEC50 in metabolomics; read-out: EC50_nM.
In assay [9] the test system is P. falciparum 3D7 trophozoites. The experiment in a line: Metabolomic fingerprint profiling LC-MS. The arrangement: UDP-D-glucose / ADP-D-glucose: unit not given here. Format: cell-based, Plasmodium falciparum.
The subject of assay [10] is Toxoplasma gondii TS-4. The note with it: ref [46]; cited from earlier work.
In assay [11] the test system is Leishmania infantum MHOM/MA/BE/67. Conditions: Run 1 and Run 2; ref [88]; read-out: L. infantum IC50 positive control; cited from earlier work.
Assay [12] concerns P. falciparum NF54Pfs16 gametocytes stage I-III. Conditions: ref [61]; read-out: gametocyte early stage (I-III) luciferase EC50; cited from earlier work.
In assay [13] the test system is P. falciparum NF54 GFP-Pfs16 gametocytes stage I-III. Conditions: ref [64]; read-out: gametocyte early stage (I-III) GFP-MTR EC50; cited from earlier work.
The test system of assay [14] is P. falciparum NF54Pfs16 gametocytes stage IV-V. Conditions: ref [62]; read-out: gametocyte late stage (IV-V) luciferase EC50; cited from earlier work.
The subject of assay [15] is P. falciparum NF54 GFP-Pfs16 gametocytes stage IV-V. The note with it: ref [64]; read-out: gametocyte late stage (IV-V) GFP-MTR EC50; cited from earlier work.
Where [16] appears, read: metabolite level change after treatment.

Several values for one entry are separate records, joined by “and”; a condition that tells them apart may be missing. Equal entries are not always repeated. Where two headings read alike, the source gives them in different places.

PfPMT, sequence (Q8IDQ9 whole entry): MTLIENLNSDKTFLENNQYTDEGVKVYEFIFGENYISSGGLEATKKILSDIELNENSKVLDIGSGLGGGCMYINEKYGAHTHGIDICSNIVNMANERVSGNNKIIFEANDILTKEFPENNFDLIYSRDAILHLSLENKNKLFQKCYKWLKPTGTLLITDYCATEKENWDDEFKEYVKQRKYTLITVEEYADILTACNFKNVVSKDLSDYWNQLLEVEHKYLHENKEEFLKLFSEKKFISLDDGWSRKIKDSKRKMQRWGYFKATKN

As for `C[C@H]1[C@@H](O)O[C@@H]2O[C@@]3(C)CC[C@H]4[C@H](C)CC[C@@H]1[C@@]24OO3` [Dihydroartemisinin, reference compound], the “DHA inhibition of stage IV/V gametocytes” value in assay [1] is listed as 84%. Moreover, the EC50 in [2] is 0.004 µM.

Turning to `CCOc1cccc2sc(N(Cc3cccnc3)C(=O)C3CCCCC3)nc12` [MMV001230], in assay [3], the EC50 is 0.156 µM.

In the case of `CN1CCN(c2ccc(Nc3c4ccccc4nc4ccccc34)cc2)CC1` [MMV006172], the EC50 in assay [4] is 0.45 µM. The IC50 in [5] was less than 0.35 µM. Also, the “fold change (IC50reduced/IC50normal)” value in assay [6] is given as 2.7. Further, the IC50 in assay [6] (3D7, read-out: P. falciparum 3D7 IC50 HCO3- (2g/L), standard media) amounted to 0.098 µM. Besides, the IC50 in assay [6] (3D7, HCO3- reduced media, read-out: P. falciparum 3D7 IC50 HCO3- reduced) came to 0.269 µM. For the same compound, in assay [7], the “candidate inhibitors of PfPMT activity (yeast functional assay)” value was “candidate inhibitors of PfPMT activity”. Moreover, the EC50 in [8] was 0.142 µM. For the same compound, in assay [9] (S2 Table Metabolomics, metabolite Acetyllysine), the Acetyllysine was determined as 0.6429. Besides, in assay [9] (S2 Table Metabolomics, metabolite N-acetyl-L-ornithine), the N-acetyl-L-ornithine is given as -0.2511. Also, the N-carbamoyl-L-aspartate in assay [9] (S2 Table Metabolomics, metabolite N-carbamoyl-L-aspartate) was 0.8815. Further, the NADPH in assay [9] (S2 Table Metabolomics, metabolite NADPH) turned out to be 2.534. Further, the dAMP in [9] (S2 Table Metabolomics, metabolite dAMP) turned out to be 1.267. Further, the dCMP in assay [9] (S2 Table Metabolomics, metabolite dCMP) is reported as -0.3053. The dTDP in assay [9] (S2 Table Metabolomics, metabolite dTDP) turned out to be 0.7092. The dTMP in assay [9] (S2 Table Metabolomics, metabolite dTMP) is given as 0.8691. The dTTP in [9] (S2 Table Metabolomics, metabolite dTTP) is recorded as -0.715. Also, in assay [9] (S2 Table Metabolomics, metabolite dihydroorotate), the dihydroorotate is given as 1.4632. Moreover, the orotate in assay [9] (S2 Table Metabolomics, metabolite orotate) came to 0.5213. In assay [9] (S2 Table Metabolomics, peptide DLH), this compound registered a DLH of -4.586. In [9] (S2 Table Metabolomics, peptide DLS/SDL/SID), the DLS/SDL/SID is given as -3.823. Further, the PD in assay [9] (S2 Table Metabolomics, peptide PD) is on record as -0.4464. In assay [9] (S2 Table Metabolomics, peptide PEE), the PEE is given as -0.6694. In assay [9] (S2 Table Metabolomics, peptide PVNF), this compound displayed a PVNF of -3.7. Besides, the 3-phosphoglycerate in assay [9] (metabolite 3-phosphoglycerate, S2 Table Metabolomics) is -0.655. Moreover, in [9] (metabolite ADP-D-glucose, S2 Table Metabolomics), the ADP-D-glucose is on record as -0.09693. The ATP in assay [9] (metabolite ATP, S2 Table Metabolomics) is recorded as -0.7842. In addition, the CDP in assay [9] (metabolite CDP, S2 Table Metabolomics, change in metabolite level after compound treatment) came out at 1.006. Besides, the D-sedoheptulose-1/7-phosphate in [9] (metabolite D-sedoheptulose-1/7-phosphate, S2 Table Metabolomics, change in metabolite level after compound treatment) was 0.2573. Besides, the FAD in [9] (metabolite FAD, S2 Table Metabolomics) is recorded as 0.1782. In addition, the GMP in [9] (metabolite GMP, S2 Table Metabolomics, change in metabolite level after compound treatment) is reported as -0.3671. Moreover, in [9] (metabolite NAD+, S2 Table Metabolomics), the “NAD+” value is listed as 0.5266. In [9] (metabolite NADP+, S2 Table Metabolomics), the “NADP+” value is -0.7002. Moreover, in assay [9] (metabolite Octoluse Bisphosphate, S2 Table Metabolomics, change in metabolite level after compound treatment), the “Octoluse Bisphosphate” value was -0.1204. Moreover, the Pyroglutamic acid in [9] (metabolite Pyroglutamic acid, S2 Table Metabolomics) was -0.2696. For the same compound, the UDP-D-glucose in [9] (metabolite UDP-D-glucose, S2 Table Metabolomics) is on record as 0.05631. The UDP-D-glucuronate in [9] (metabolite UDP-D-glucuronate, S2 Table Metabolomics) is -0.2935. The UDP-N-acetyl-glucosamine in assay [9] (metabolite UDP-N-acetyl-glucosamine, S2 Table Metabolomics) came to 0.1613. Besides, in [9] (metabolite UDP, S2 Table Metabolomics, change in metabolite level after compound treatment), the UDP came out at 0.649. Also, the UMP in assay [9] (metabolite UMP, S2 Table Metabolomics, change in metabolite level after compound treatment) amounted to 0.2218. In addition, in [9] (metabolite UTP, S2 Table Metabolomics, change in metabolite level after compound treatment), the UTP is listed as -0.6427. In assay [9] (metabolite a-ketoglutarate, S2 Table Metabolomics), the a-ketoglutarate is given as -0.4073. Further, in assay [9] (metabolite citrate/isocitrate, S2 Table Metabolomics, change in metabolite level after compound treatment), the citrate/isocitrate is given as -0.6633. Further, the cytidine in assay [9] (metabolite cytidine, S2 Table Metabolomics) amounted to 0.3233. Further, the dATP in assay [9] (metabolite dATP, S2 Table Metabolomics) was -0.3558. Further, the dGMP/AMP in assay [9] (metabolite dGMP/AMP, S2 Table Metabolomics, change in metabolite level after compound treatment) came to 1.003. In addition, in assay [9] (metabolite fumarate, S2 Table Metabolomics, change in metabolite level after compound treatment), the fumarate is on record as 0.7684. The glucose-1/6-phosphate in assay [9] (metabolite glucose-1/6-phosphate, S2 Table Metabolomics, change in metabolite level after compound treatment) is listed as 0.09231. For the same compound, in assay [9] (metabolite glycerate, S2 Table Metabolomics, change in metabolite level after compound treatment), the glycerate amounted to 0.7592. The guanine in assay [9] (metabolite guanine, S2 Table Metabolomics, change in metabolite level after compound treatment) amounted to 0.5811. Besides, in assay [9] (metabolite guanosine, S2 Table Metabolomics, change in metabolite level after compound treatment), the guanosine came out at 0.453. Besides, in assay [9] (metabolite hypoxanthine, S2 Table Metabolomics), the hypoxanthine is reported as -0.3137. In addition, in [9] (metabolite indole, S2 Table Metabolomics), the indole was -0.03187. In addition, the inosine in [9] (metabolite inosine, S2 Table Metabolomics, change in metabolite level after compound treatment) was -0.01435. In assay [9] (setting [16]), the 2_3-Diphosphoglyceric acid is -0.3266, the 4-phosphopantothenate is on record as 0.2237, the 6-phospho-D-gluconate was -0.02611 and the FMN is -0.396. In [9] (setting [16]), the IMP was 0.3236, the Pyrophosphate is on record as -0.313, the Sedoheptoluse bisphosphate stood at 0.4531 and the cyclic-AMP is -0.3476. Besides, in assay [9] (setting [16]), the glutathione disulfide was -0.09654, the lactate is reported as -0.002939 and the myo-inositol came to 0.6827. In [9] (metabolite nicotinate, S2 Table Metabolomics), the nicotinate is given as -0.01109. Also, the ornithine in assay [9] (metabolite ornithine, S2 Table Metabolomics) was found to be 0.1416. The phosphoenolpyruvate in assay [9] (metabolite phosphoenolpyruvate, S2 Table Metabolomics) is -0.5207. Further, the pyruvate in assay [9] (metabolite pyruvate, S2 Table Metabolomics, change in metabolite level after compound treatment) was -0.2034. The ribose-phosphate in assay [9] (metabolite ribose-phosphate, S2 Table Metabolomics) was -0.6476. For the same compound, the sarcosine/alanine in assay [9] (metabolite sarcosine/alanine, S2 Table Metabolomics, change in metabolite level after compound treatment) was -0.2856. In addition, the sn-glycerol-3-phosphate in assay [9] (metabolite sn-glycerol-3-phosphate, S2 Table Metabolomics) is listed as -0.6027. Also, the succinate/methylmalonic acid in [9] (metabolite succinate/methylmalonic acid, S2 Table Metabolomics, change in metabolite level after compound treatment) is -0.3004. Also, the uridine in assay [9] (metabolite uridine, S2 Table Metabolomics, change in metabolite level after compound treatment) was -0.07558. Besides, in assay [9] (metabolite xanthosine, S2 Table Metabolomics, change in metabolite level after compound treatment), the xanthosine is reported as -1.8392.

Turning to `CN(C)CCNc1cc(-c2ccccc2)nc2ccccc12` [MMV006704], the “non-toxic compounds active against T. gondii” value (shortened to “non-toxic compounds active”) in assay [10] is reported as “active”.

In the case of `Clc1ccc2c(N3CCCC3)ccnc2c1` [MMV007363], the “non-toxic compounds active” value in [10] is on record as “active”.

As to `CCOc1ccccc1NC(=O)CN1CCN(C(=O)c2ccco2)CC1` [MMV007791], the “non-toxic compounds active” value in [10] is on record as “active”.

With `CCCCN(CCCC)S(=O)(=O)c1ccc(NC(=O)c2ccco2)cc1` [MMV007881], the “non-toxic compounds active” value in [10] was “active”.

`CCCc1c(C)nc2ccc(Br)cc2c1O` [MMV666095]: the “non-toxic compounds active” value in assay [10] was “active”.

As for `CCCCCCCCCCCCCCCCOP(=O)([O-])OCC[N+](C)(C)C` [Miltefosine, reference compound], in [11], the IC50 was 7.1 µM and 9 µM.

With `CN(C)c1ccc2nc3ccc(=[N+](C)C)cc-3sc2c1` [methylene blue, reference compound], the EC50 in assay [12] is 0.03 µM; in assay [13], 0.28 µM; in assay [14], 0.038 µM; in assay [15], 0.287 µM.

These data come from article PMC4965013, “Open Source Drug Discovery with the Malaria Box Compound Collection for Neglected Diseases and Beyond” (PLoS Pathogens, 2016).
